How the values were obtained:
[1] = system: Human RSV-B (genotype B, strain 9320); test: RSV-B assay (qPCR or ATPlite) in A549 cells; format: cell-based; conditions: human respiratory syncytial virus, 144 h, strain 9320, MOI 0.5, 6 days post infection, qPCR or ATPlite readout
Excerpt: Hep-2 cells, (originally derived from tumors grown in irradiated-cortisonised weanling rats that had been injected with epidermoid carcinoma tissue from a person's larynx, but later found to be indistinguishable from HeLa cells by PCR DNA analysis), were used for the culturing of genotype B, strain 9320. Flasks were inoculated with RSV-B and viral stocks were collected once cytopathic effect (CPE) was greater than 90%. Viral stocks in 25% sucrose media were snap frozen using liquid nitrogen to increase viral stability. Viral stock titers were quantified by tissue culture infectious dose 50% (TCID50) using 8,000 cells per well and 5-fold viral dilutions across a 96-well plate, cultured for 4 days. Viral stock titers were also quantified by a plaque forming unit assay, as described elsewhere.
The assay is run as follows: A549 cells (originally derived through explant culture from a person's carcinomatous lung tissue) are seeded into the inner 60 wells of a 96-well plate at 3,000 cells per well in a volume of 50 μL using A549 growth media (F-12K Media, 1% Penn/Strep, 1% nonessential amino acids, 10% heat-inactivated FBS). 2-fold serial dilutions of control and test compounds are added to the wells in duplicate in a total volume of 25 μL. Viral stock is then added to the wells at a multiplicity of infection (MOI) of 0.5 in a volume of 25 μL, bringing the total volume of each well to 100 μL. The MOI is calculated using the PFU/mL, or TCID50 if unavailable. Each 96-well plate has a control column of 6 wells with cells and virus but no compound (negative control, max CPE), a column with cells but no compound or virus (positive control, minimum CPE), and a column with no cells or virus or compound (background plate/reagent control). The control wells with cells but no virus are given an additional 25 μL of growth media containing an equal quantity of sucrose as those wells receiving the viral stock in order to keep consistent in media and volume conditions. The outer wells of the plate are filled with 125 μL of moat media (DMEM, 1% Penn/Strep) to act as a thermal and evaporative moat around the test wells. 6 days post infection, the plates are read using qPCR or ATP lite (50 μL added per well), which quantifies the amount of ATP (a measure of cell health) present in each well. Assay plates treated with APTlite are read using the Envision luminometer. […] EC50 ranges are as follows: A<0.4 μM; B 0.4-0.8 μM; C>0.8 μM.

[2] = system: Human RSV-A (“Long” strain); test: RSV-A assay (CPE, ATPlite) in Hep-2 cells; format: cell-based; conditions: human respiratory syncytial virus, 120 h, MOI 0.1, 5-day incubation, ATPlite readout
Excerpt: Hep-2 cells, (originally derived from tumors grown in irradiated-cortisonised weanling rats that had been injected with epidermoid carcinoma tissue from a person's larynx, but later found to be indistinguishable from HeLa cells by PCR DNA analysis), were used for the culturing of genotype A, “Long” strain RSV. Flasks were inoculated with RSV and viral stocks were collected once cytopathic effect (CPE) was greater than 90%. Viral stocks in 25% sucrose media were snap frozen using liquid nitrogen to increase viral stability. Viral stock titers were quantified by tissue culture infectious dose 50% (TCID50) using 8,000 cells per well and 3-fold viral dilutions across a 96-well plate, cultured for 4 days. Viral stock titers were also quantified by a plaque forming unit assay, as described elsewhere.
Following extensive parameter testing, the final assay is run as follows: Hep-2 cells are seeded into the inner 60 wells of a 96-well plate at 8,000 cells per well in a volume of 50 μL using Growth Media (DMEM without phenol red, 1% L-Glut, 1% Penn/Strep, 1% nonessential amino acids, 10% heat-inactivated FBS). 2-fold serial dilutions of control and test compounds are added to the wells in duplicate in a total volume of 25 μL. Viral stock is then added to the wells at a multiplicity of infection (MOI) of 0.1 in a volume of 25 μL, bringing the total volume of each well to 100 μL. The MOI is calculated using the PFU/mL, or TCID50 if unavailable. Each 96-well plate has a control column of 6 wells with cells and virus but no compound (negative control, max CPE), a column with cells but no compound or virus (positive control, minimum CPE), and a column with no cells or virus or compound (background plate/reagent control). The control wells with cells but no virus are given an additional 25 μL of growth media containing an equal quantity of sucrose as those wells receiving the viral stock in order to keep consistent in media and volume conditions. The outer wells of the plate are filled with 125 μL of moat media (DMEM, 1% Penn/Strep) to act as a thermal and evaporative moat around the test wells. Following a 5-day incubation period, the plates are read using ATPlite (50 μL added per well), which quantifies the amount of ATP (a measure of cell health) present in each well. Assay plates are read using the Envision luminometer. In parallel, cytotoxicity is examined on an additional 96-well plate treated in an identical manner, but substituting the 25 μL of viral stock for 25 μL of growth media. […] EC50 ranges are as follows: A<0.4 μM; B 0.4-0.8 μM; C>0.8 μM.

O=C1Nc2ccccc2C(c2ccccc2)=NC1Nc1nnc(-c2ncc(C(F)(F)F)cc2-c2cnc(NC3CC3)nc2)o1 (stereo not shown) [Example 20]
EC50 [1]: < 400 nM
EC50 [2]: 400 to 800 nM

CCc1ncc(-c2sc(C3(C)CC3)nc2-c2nnc(N[C@H]3N=C(c4ccccc4)c4cccc(F)c4NC3=O)o2)cn1 [Example 69]
EC50 [1]: < 400 nM
EC50 [2]: < 400 nM

CCc1ncc(-c2cc(C(F)(F)F)cnc2-c2nnc(N[C@H]3N=C(c4ccccc4)c4cccc(F)c4NC3=O)o2)cn1 [Example 28]
EC50 [1]: < 400 nM
EC50 [2]: < 400 nM

O=C1Nc2ccccc2C(c2ccccc2)=NC1Nc1nnc(-c2ncc(C(F)(F)F)cc2-c2cnc(C3CC3)nc2)o1 (stereo not shown) [Example 7]
EC50 [1]: < 400 nM
EC50 [2]: < 400 nM

CCc1ncc(-c2sc(C3CC3)nc2-c2nnc(N[C@@H]3N=C(c4ccccc4)c4cccc(F)c4NC3=O)o2)cn1 [Example 44]
EC50 [1]: < 400 nM
EC50 [2]: < 400 nM

CCc1ncc(-c2cc(C(F)(F)F)cnc2-c2nnc(N[C@H]3N=C(c4ccccc4)c4ccccc4NC3=O)o2)cn1 [Example 29]
EC50 [1]: < 400 nM
EC50 [2]: < 400 nM

Cc1ncc(-c2sc(C)nc2-c2nnc(N[C@H]3N=C(c4ccccc4)c4cccc(F)c4NC3=O)o2)cn1 [Example 39]
EC50 [1]: < 400 nM
EC50 [2]: < 400 nM

O=C1Nc2ccccc2C(c2ccccc2)=N[C@@H]1Nc1nnc(-c2ncc(C(F)F)cc2-c2cnc(C3CC3)nc2)o1 [Example 98]
EC50 [1]: < 400 nM
EC50 [2]: < 400 nM

Cc1ncc(-c2sc(C3CC3)nc2-c2nnc(N[C@@H]3N=C(c4ccccc4)c4cccc(F)c4NC3=O)o2)cn1 [Example 55]
EC50 [1]: < 400 nM
EC50 [2]: > 800 nM

O=C1Nc2c(F)cccc2C(c2ccccc2)=N[C@H]1Nc1nnc(-c2nc(C3(C(F)(F)F)CC3)sc2-c2cnc(C3CC3)nc2)o1 [Example 74]
EC50 [1]: < 400 nM
EC50 [2]: > 800 nM

Cc1ncc(-c2cc(C(F)(F)F)cnc2-c2nnc(N[C@H]3N=C(c4ccccc4)c4ccccc4NC3=O)o2)cn1 [Example 26]
EC50 [1]: < 400 nM
EC50 [2]: < 400 nM

C#Cc1ncc(-c2cc(C(F)(F)F)cnc2-c2nnc(NC3N=C(c4ccccc4)c4ccccc4NC3=O)o2)cn1 (stereo not shown) [Example 19]
EC50 [1]: 400 to 800 nM
EC50 [2]: > 800 nM

O=C1Nc2c(F)cccc2C(c2ccccc2)=N[C@@H]1Nc1nnc(-c2nc(C3CCC3)sc2-c2cnc(C3CC3)nc2)o1 [Example 65]
EC50 [1]: < 400 nM
EC50 [2]: < 400 nM

Cc1ncc(-c2nc(C(F)(F)F)ccc2-c2nnc(N[C@H]3N=C(c4ccccc4)c4ccccc4NC3=O)o2)cn1 [Example 21]
EC50 [1]: < 400 nM
EC50 [2]: 400 to 800 nM
